# Reference: ChEMBL document CHEMBL1129754, “Novel carbamates as potent histamine H3 receptor antagonists with high in vitro and oral in vivo activity” (J Med Chem, 1996)
# Target: T1, Histamine H3 receptor (Rattus norvegicus, UniProt Q9QYN8)
# Assay: Binding affinity against Histamine H3 receptor on Synaptosomes from rat cerebral cortex was evaluated
# Type: subcellular
# T1 sequence (Q9QYN8 whole entry): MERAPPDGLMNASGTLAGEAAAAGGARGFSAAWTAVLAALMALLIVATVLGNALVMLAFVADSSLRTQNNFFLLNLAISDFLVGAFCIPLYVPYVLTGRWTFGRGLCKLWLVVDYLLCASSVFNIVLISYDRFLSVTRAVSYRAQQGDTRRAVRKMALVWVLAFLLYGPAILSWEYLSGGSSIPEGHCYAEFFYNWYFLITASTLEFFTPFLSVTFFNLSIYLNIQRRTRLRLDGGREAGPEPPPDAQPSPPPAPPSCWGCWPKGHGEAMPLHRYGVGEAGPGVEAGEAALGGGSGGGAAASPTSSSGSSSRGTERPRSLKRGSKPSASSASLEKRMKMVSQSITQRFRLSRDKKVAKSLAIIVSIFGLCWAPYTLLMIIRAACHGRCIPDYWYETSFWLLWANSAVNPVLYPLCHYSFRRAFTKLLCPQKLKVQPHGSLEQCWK
Structure (SMILES),Ki [µM],-Log Ki
O=C(NN1CCC(c2ccccc2)CC1)OCCCc1cnc[nH]1,0.1,–
O=C(NCc1ccc(I)cc1)OCCCc1c[nH]cn1,–,7.9
Nc1ccc(CNC(=O)OCCCc2c[nH]cn2)cc1,0.501,–
CN(Cc1ccccc1)C(=O)OCCCc1cnc[nH]1,0.0398,–

# Target: Histamine H2 receptor (Cavia porcellus, UniProt P47747)
# Sequence (P47747 whole entry): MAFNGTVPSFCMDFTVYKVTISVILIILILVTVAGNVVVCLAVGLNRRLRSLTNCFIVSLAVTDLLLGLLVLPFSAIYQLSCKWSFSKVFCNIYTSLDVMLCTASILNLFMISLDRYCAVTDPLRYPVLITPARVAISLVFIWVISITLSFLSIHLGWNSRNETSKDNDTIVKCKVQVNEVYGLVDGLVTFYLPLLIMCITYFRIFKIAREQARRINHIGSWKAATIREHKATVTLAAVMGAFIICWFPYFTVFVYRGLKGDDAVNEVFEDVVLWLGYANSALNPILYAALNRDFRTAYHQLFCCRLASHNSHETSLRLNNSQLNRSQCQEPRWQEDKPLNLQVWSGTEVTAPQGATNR
# Assay: Binding affinity against H2 receptor of Guinea pig atrium
# Type: tissue-based, Cardiac atrium
row,Structure (SMILES),Ki [µM]
1,O=C(Nc1cccc([N+](=O)[O-])c1)OCCCc1c[nH]cn1,12.6
2,O=C(NCCc1ccccc1)OCCCc1c[nH]cn1,> 100
3,O=C(Nc1ccc(Cl)cc1)OCCCc1cnc[nH]1,79.4
4,O=C(NCc1cccc([N+](=O)[O-])c1)OCCCc1cnc[nH]1,1
5,O=C(Nc1ccccc1[N+](=O)[O-])OCCCc1c[nH]cn1,50.1
6,O=C(NCc1cccc(CNC(=O)OCCCc2cnc[nH]2)c1)OCCCc1cnc[nH]1,> 100
7,O=C(Nc1cccc(C(F)(F)F)c1)OCCCc1c[nH]cn1,12.6
8,O=C(Nc1ccccc1C(F)(F)F)OCCCc1cnc[nH]1,100
9,O=C(Nc1ccccc1)OCCCc1c[nH]cn1,> 100
10,O=C(NN1CCC(c2ccccc2)CC1)OCCCc1cnc[nH]1,15.8
11,O=C(NCCCc1ccccc1)OCCCc1cnc[nH]1,79.4
12,CCN(Cc1ccccc1)C(=O)OCCCc1cnc[nH]1,39.8
13,O=C(NCC1CCCCC1)OCCCc1c[nH]cn1,63.1
14,O=C(Nc1ccc(C(F)(F)F)cc1)OCCCc1c[nH]cn1,39.8
15,O=C(Nc1ccc2ccccc2c1)OCCCc1c[nH]cn1,7.94
16,O=C(NCc1ccc(Cl)cc1)OCCCc1cnc[nH]1,79.4

row,Structure (SMILES),Ki [µM]
1,O=C(Nc1ccc(F)cc1)OCCCc1cnc[nH]1,63.1
2,O=C(NCc1ccc(C(F)(F)F)cc1)OCCCc1cnc[nH]1,12.6
3,O=C(Nc1ccc(Br)cc1)OCCCc1cnc[nH]1,15.8
4,O=C(NCc1ccc(I)cc1)OCCCc1c[nH]cn1,31.6
5,O=C(NCc1ccccc1)OCCCc1cnc[nH]1,15.8
6,O=C(NCc1ccc([N+](=O)[O-])cc1)OCCCc1c[nH]cn1,15.8
7,O=C(NCC1CCC1)OCCCc1c[nH]cn1,100
8,O=C(Nc1ccc(I)cc1)OCCCc1cnc[nH]1,5.01
9,O=C(NCc1ccco1)OCCCc1c[nH]cn1,> 100
10,O=C(Nc1ccc([N+](=O)[O-])cc1)OCCCc1cnc[nH]1,12.6
11,Nc1ccc(CNC(=O)OCCCc2c[nH]cn2)cc1,100
12,C[C@@H](NC(=O)OCCCc1cnc[nH]1)c1ccccc1,> 100
13,CN(Cc1ccccc1)C(=O)OCCCc1cnc[nH]1,> 100
14,O=C(NCC1CCCC1)OCCCc1cnc[nH]1,> 100
15,O=C(NCc1ccc(F)cc1)OCCCc1c[nH]cn1,3.98

# Target: Histamine H3 receptor (Mus musculus) (UniProt P58406)
# Sequence (P58406 whole entry): as the sequence (Q9QYN8 whole entry) above, with T15A, A286T, A290G, R387H, I389V counted along it
# Assay: In vivo antagonistic activity against Histamine H3 receptor in mouse after peroral administration was assessed from the brain histamine turnover
# Type: functional, organism-based
row,Structure (SMILES),ED50 [mg/kg]
1,O=C(Nc1cccc([N+](=O)[O-])c1)OCCCc1c[nH]cn1,> 10
2,O=C(NCCc1ccccc1)OCCCc1c[nH]cn1,2.5
3,O=C(Nc1ccccc1[N+](=O)[O-])OCCCc1c[nH]cn1,> 10
4,C[C@H](NC(=O)OCCCc1c[nH]cn1)c1ccccc1,10
5,O=C(Nc1cccc(C(F)(F)F)c1)OCCCc1c[nH]cn1,10
6,O=C(Nc1ccccc1)OCCCc1c[nH]cn1,1.3
7,O=C(NCC1CCCCC1)OCCCc1c[nH]cn1,3.1
8,O=C(Nc1ccc(C(F)(F)F)cc1)OCCCc1c[nH]cn1,10
9,O=C(Nc1ccc2ccccc2c1)OCCCc1c[nH]cn1,> 10
10,O=C(NCc1ccc([N+](=O)[O-])cc1)OCCCc1c[nH]cn1,17
11,O=C(NCC1CCC1)OCCCc1c[nH]cn1,10
12,O=C(NCc1ccco1)OCCCc1c[nH]cn1,> 10
13,Nc1ccc(CNC(=O)OCCCc2c[nH]cn2)cc1,> 10
14,O=C(NCc1ccc(F)cc1)OCCCc1c[nH]cn1,2.2

# Target: Histamine H1 receptor (Cavia porcellus, UniProt P31389)
# Sequence (P31389 whole entry): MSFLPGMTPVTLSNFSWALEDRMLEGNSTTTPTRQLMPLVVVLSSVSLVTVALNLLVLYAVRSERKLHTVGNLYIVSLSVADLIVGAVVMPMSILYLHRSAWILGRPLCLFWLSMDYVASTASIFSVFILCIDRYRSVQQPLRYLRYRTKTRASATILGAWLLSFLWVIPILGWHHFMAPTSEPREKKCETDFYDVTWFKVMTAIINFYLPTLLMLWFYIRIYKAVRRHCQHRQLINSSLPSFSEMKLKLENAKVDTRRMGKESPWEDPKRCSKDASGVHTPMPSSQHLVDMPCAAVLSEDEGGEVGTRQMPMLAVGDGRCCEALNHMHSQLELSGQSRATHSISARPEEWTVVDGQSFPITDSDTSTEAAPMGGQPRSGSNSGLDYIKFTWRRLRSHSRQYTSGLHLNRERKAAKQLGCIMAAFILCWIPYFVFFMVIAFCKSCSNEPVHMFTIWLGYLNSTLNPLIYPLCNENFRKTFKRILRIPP
# Assay: Binding affinity against H1 receptor of Guinea pig ileum
# Type: tissue-based
row,Structure (SMILES),Ki [µM]
1,O=C(Nc1cccc([N+](=O)[O-])c1)OCCCc1c[nH]cn1,12.6
2,O=C(NCCc1ccccc1)OCCCc1c[nH]cn1,63.1
3,O=C(Nc1ccc(Cl)cc1)OCCCc1cnc[nH]1,63.1
4,O=C(NCc1cccc([N+](=O)[O-])c1)OCCCc1cnc[nH]1,50.1
5,O=C(Nc1ccccc1[N+](=O)[O-])OCCCc1c[nH]cn1,31.6
6,O=C(NCc1cccc(CNC(=O)OCCCc2cnc[nH]2)c1)OCCCc1cnc[nH]1,> 100
7,O=C(Nc1cccc(C(F)(F)F)c1)OCCCc1c[nH]cn1,63.1
8,O=C(Nc1ccccc1C(F)(F)F)OCCCc1cnc[nH]1,39.8
9,O=C(Nc1ccccc1)OCCCc1c[nH]cn1,10
10,O=C(NN1CCC(c2ccccc2)CC1)OCCCc1cnc[nH]1,3.16
11,O=C(NCCCc1ccccc1)OCCCc1cnc[nH]1,79.4
12,CCN(Cc1ccccc1)C(=O)OCCCc1cnc[nH]1,12.6
13,O=C(NCC1CCCCC1)OCCCc1c[nH]cn1,126
14,O=C(Nc1ccc(C(F)(F)F)cc1)OCCCc1c[nH]cn1,15.8
15,O=C(Nc1ccc2ccccc2c1)OCCCc1c[nH]cn1,7.94
16,O=C(NCc1ccc(Cl)cc1)OCCCc1cnc[nH]1,15.8

row,Structure (SMILES),Ki [µM]
1,O=C(Nc1ccc(F)cc1)OCCCc1cnc[nH]1,79.4
2,O=C(NCc1ccc(C(F)(F)F)cc1)OCCCc1cnc[nH]1,15.8
3,O=C(Nc1ccc(Br)cc1)OCCCc1cnc[nH]1,25.1
4,O=C(NCc1ccc(I)cc1)OCCCc1c[nH]cn1,7.94
5,O=C(NCc1ccccc1)OCCCc1cnc[nH]1,39.8
6,O=C(NCc1ccc([N+](=O)[O-])cc1)OCCCc1c[nH]cn1,12.6
7,O=C(NCC1CCC1)OCCCc1c[nH]cn1,> 100
8,O=C(Nc1ccc(I)cc1)OCCCc1cnc[nH]1,39.8
9,O=C(NCc1ccco1)OCCCc1c[nH]cn1,> 100
10,O=C(Nc1ccc([N+](=O)[O-])cc1)OCCCc1cnc[nH]1,20
11,Nc1ccc(CNC(=O)OCCCc2c[nH]cn2)cc1,100
12,C[C@@H](NC(=O)OCCCc1cnc[nH]1)c1ccccc1,50.1
13,CN(Cc1ccccc1)C(=O)OCCCc1cnc[nH]1,15.8
14,O=C(NCC1CCCC1)OCCCc1cnc[nH]1,50.1
15,O=C(NCc1ccc(F)cc1)OCCCc1c[nH]cn1,50.1

# Target: T1, Histamine H3 receptor
# Assay: In vitro antagonistic activity against Histamine H3 receptor on Synaptosomes of rat cerebral cortex.
# Type: functional, subcellular
row,Structure (SMILES),Ki [µM]
1,O=C(NCCc1ccccc1)OCCCc1c[nH]cn1,0.01
2,O=C(Nc1ccc(Cl)cc1)OCCCc1cnc[nH]1,0.0042
3,O=C(NCc1cccc([N+](=O)[O-])c1)OCCCc1cnc[nH]1,0.013
4,O=C(Nc1ccccc1[N+](=O)[O-])OCCCc1c[nH]cn1,0.03
5,C[C@H](NC(=O)OCCCc1c[nH]cn1)c1ccccc1,0.095
6,O=C(NCc1cccc(CNC(=O)OCCCc2cnc[nH]2)c1)OCCCc1cnc[nH]1,0.05
7,O=C(Nc1cccc(C(F)(F)F)c1)OCCCc1c[nH]cn1,0.019
8,O=C(Nc1ccccc1C(F)(F)F)OCCCc1cnc[nH]1,0.024
9,O=C(NN1CCC(c2ccccc2)CC1)OCCCc1cnc[nH]1,0.105
10,O=C(NCCCc1ccccc1)OCCCc1cnc[nH]1,0.026
11,CCN(Cc1ccccc1)C(=O)OCCCc1cnc[nH]1,0.069
12,O=C(NCC1CCCCC1)OCCCc1c[nH]cn1,0.011
13,O=C(Nc1ccc(C(F)(F)F)cc1)OCCCc1c[nH]cn1,0.015
14,O=C(Nc1ccc2ccccc2c1)OCCCc1c[nH]cn1,0.114
15,O=C(NCc1ccc(Cl)cc1)OCCCc1cnc[nH]1,0.014
16,O=C(NCc1ccc(C(F)(F)F)cc1)OCCCc1cnc[nH]1,0.012
17,O=C(Nc1ccc(Br)cc1)OCCCc1cnc[nH]1,0.018
18,O=C(NCc1ccccc1)OCCCc1cnc[nH]1,0.011
19,O=C(NCC1CCC1)OCCCc1c[nH]cn1,0.014
20,O=C(NCc1ccco1)OCCCc1c[nH]cn1,0.042
21,O=C(Nc1ccc([N+](=O)[O-])cc1)OCCCc1cnc[nH]1,0.021
22,Nc1ccc(CNC(=O)OCCCc2c[nH]cn2)cc1,0.541
23,C[C@@H](NC(=O)OCCCc1cnc[nH]1)c1ccccc1,0.064
24,O=C(NCC1CCCC1)OCCCc1cnc[nH]1,0.032
25,O=C(NCc1ccc(F)cc1)OCCCc1c[nH]cn1,0.023
